This is an account of results in article PMC5041077, “Metabolic profile and safety of piperlongumine” (Scientific Reports, 2016).

The test system of data set [1] is recombinant human CYP (rhCYP) isoforms. Put plainly: P450 reaction phenotyping by rhCYP isoforms. The class given is in vitro ADME. To be noted: specific inhibitors in pooled HLM and recombinant CYP450 isoforms. As to the method: The capacity of selected major human P450 isoforms to metabolize PPL was screened using human recombinant isoenzymes. Briefly, PPL (S50 concentration) was added into a 200 μL incubation mixture containing P450 isoform (50 pmol/mL for CYP3A4, CYP1A2, CYP2C9, 2B6, 2D6 and 2C19; 25 pmol/mL for CYP2C8 and […]; final concentrations), NADPH regeneration system solution A (1.3 mM NADP^+ and 3.3 mM glucose-6-phosphate), NADPH regeneration system solution B (0.4 U/mL glucose-6-phosphate dehydrogenase), potassium phosphate buffer pH 7.4 (100 mM), except for CYP2C9 where the phosphate buffer was substituted by tris buffer pH 7.5 (100 mM), maintaining for 50 min in shaking water bath. In order to enhance the sensibility one sample was pooled from 4 single reactions. PPL metabolites were analyzed by a GC-MS as described previously. The MS peak areas of PPL metabolites were recorded to determine the contributions of the P450 enzymes.
Phenotyping study at 50 min. In order to evaluate the CYP isoforms involved in M4 formation, a similar study as described in the main text was performed, except by the time of incubation of 50 min (Fig. S13).

Data set [2] can be described thus: Piperlongumine plasma protein binding (ultrafiltration). It is filed as in vitro ADME. As to the method: Piperlongumine-protein binding. An in vitro study with a microsomal and plasma protein was carried out using a concentration of PPL approximately corresponding to its S50 (n = 3). The plasma protein binding was evaluated to predict the in vivo clearance, using a plasma protein concentration of 42 mg/mL. The samples were incubated with pooled human liver microsomes at 37 °C as described in section above. The same V0 conditions obtained (protein concentration and incubation time) were applied in this study, but in the absence of the cofactor NADPH. Furthermore, a control sample without protein was analyzed simultaneously for comparison purposes. These mixtures were added to the centrifugal filter device (Microcon YM-30, 30,000 molecular weight cut-off; Millipore Corporation, Bedford, MA, USA) and centrifuged at 21800 x g for 30 min at 37 °C (Hitachi CF16RXII, Himac, Tokyo, Japan). The ultra-filtrate was directly assayed by high-performance liquid chromatography at the conditions previously described.

The target of the next data set is CYP2D6 (Homo sapiens, UniProt P10635). Put plainly: biochemical.
CYP2D6, sequence (P10635 whole entry): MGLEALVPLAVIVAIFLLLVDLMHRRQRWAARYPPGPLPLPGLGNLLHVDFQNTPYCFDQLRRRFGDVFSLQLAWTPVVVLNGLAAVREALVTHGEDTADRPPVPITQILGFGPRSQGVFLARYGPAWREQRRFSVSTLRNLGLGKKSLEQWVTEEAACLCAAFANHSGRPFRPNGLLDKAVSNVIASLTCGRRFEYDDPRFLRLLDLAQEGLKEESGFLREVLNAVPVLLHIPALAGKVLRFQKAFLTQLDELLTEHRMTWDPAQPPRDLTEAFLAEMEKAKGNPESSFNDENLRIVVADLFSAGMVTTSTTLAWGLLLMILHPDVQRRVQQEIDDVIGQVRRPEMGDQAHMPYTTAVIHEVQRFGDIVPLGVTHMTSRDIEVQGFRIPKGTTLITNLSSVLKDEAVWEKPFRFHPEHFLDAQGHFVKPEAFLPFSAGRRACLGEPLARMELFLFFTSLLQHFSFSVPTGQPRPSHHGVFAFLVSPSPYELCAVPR
Data set [3] can be described thus: Predicted in vivo parameters (in vitro-in vivo scaling). It is filed as in vitro ADME, human. As to the method:
In vitro-in vivo scaling has been proposed by some authors. […] PPL microsome and plasma bindings were 23% and 93%, respectively. The predicted parameters, Intrinsic Clearance (CLint), Unbounded Intrinsic Clearance (CLuint), Predicted in vivo Clearance (CL), Hepatic Clearance (CLH) and Hepatic Extraction Ratio (E), are expressed in Table 1.
(§1) The kinetic parameters were calculated from nonlinear regression using GraphPad Prism Version 3.03 (San Diego, CA, USA). The Intrinsic Clearance (CLint) was obtained considering the Hill coefficient. The Unbounded Intrinsic Clearance (CLuint), Predicted in vivo Clearance (CL) and Hepatic Clearance (CLH) were determined according to Subramarian and Tracy[15] and Austin et al.[17]. Hepatic extraction ratio was calculated according to Kashuba et al.[21]. Dose-dependent inhibition parameters were determined employing SigmaPlot version 12.0 (Chicago, IL, USA). The Lineweaver-Burk plot was used to determine the inhibition profile. The second plot of slopes from Lineweaver-Burk plot versus PPL concentrations was utilized to calculate the Ki. The parameters kinact and KI in time-dependent inhibition were calculated employing GraphPad Prism Version 3.03.

The target of data set [4] is T1, CYP1A2 (Homo sapiens, UniProt P05177). Put plainly: Inhibition of CYP1A2 by piperlongumine (dose-dependent, Ki). The class given is in vitro ADME. As to the method:
In the assay of PPL inhibition in reversible manner, human liver microsomes (0.3 mg/mL final concentration) were the last reagent added into the incubation system to initiate the reaction; after 30 min the reaction was terminated by adding 2 mL of ethyl acetate. Caffeine (64 μM) was added as internal standard and samples were shaken for 10 min at 1500 rpm and centrifuged for 5 min at 2860x g. The organic layers (1.8 mL) were evaporated to dryness under a stream of compressed air at room temperature. The residues were dissolved in 80 μL of the mobile phase and injected in HPLC.
as §1, with “The second plot of slopes from Lineweaver-Burk plot versus PPL concentrations was utilized to calculate the Ki.” left out

For data set [5], the target named is T1, CYP1A2. Put plainly: NADPH-dependent inhibition study. It is filed as in vitro ADME. To be noted: PPL at 1/2 IC50, pre-incubation 0 and 30 min. As to the method: NADPH-dependent Inhibition. The mechanism-based inhibition is characterized by dose-, NADPH- and time-dependent cytochrome P450 oxidoreductase, so the NADPH dependence study was performed. […] NADPH regeneration system was added and the mixture was pre-incubated for 0 and 30 min. […] The mixture was incubated by 30 min and the reaction stopped as described previously. Controls without PPL were performed.

T1 sequence (P05177 whole entry): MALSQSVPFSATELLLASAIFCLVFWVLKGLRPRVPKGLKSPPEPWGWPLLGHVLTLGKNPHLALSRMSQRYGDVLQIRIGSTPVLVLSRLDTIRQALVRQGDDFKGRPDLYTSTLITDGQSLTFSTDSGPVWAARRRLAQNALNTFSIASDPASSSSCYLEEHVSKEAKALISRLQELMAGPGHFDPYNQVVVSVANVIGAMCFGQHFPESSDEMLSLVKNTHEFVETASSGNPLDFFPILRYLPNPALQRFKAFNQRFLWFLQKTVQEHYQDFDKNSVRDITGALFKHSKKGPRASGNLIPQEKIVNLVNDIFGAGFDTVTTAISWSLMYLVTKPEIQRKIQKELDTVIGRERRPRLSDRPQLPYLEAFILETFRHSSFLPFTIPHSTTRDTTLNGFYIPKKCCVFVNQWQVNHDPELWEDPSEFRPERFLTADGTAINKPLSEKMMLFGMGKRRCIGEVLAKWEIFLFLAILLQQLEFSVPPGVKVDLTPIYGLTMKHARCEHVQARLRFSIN

With `COc1cc(/C=C/C(=O)N2CCC=CC2=O)cc(OC)c1OC` [PPL, Piperlongumine], the “main CYP isoenzymes involved in PPL metabolism” value in data set [1] is “CYP1A2 and CYP3A4”. This compound displayed a plasma binding in data set [2] (PPL approx. S50, plasma protein 42 mg/mL) of 93%. The fraction unbound at 16 min, 127.7 μM in data set [2] (plasma protein (42 mg/mL), PPL 127.70 μM, read-out: fuplasma (free fraction of the compound in plasma)) came to 0.07. Also, the 50% inhibitory concentration (IC50) (commonly the point on the concentration scale where inhibition reaches its midpoint) against CYP2D6 is over 100 µM. Also, the “Hepatic Extraction (E)” value in data set [3] is on record as 0.09. In data set [3] (40 mg microsomes/g liver, 20 g liver/kg body weight), the “Predicted in Vivo Clearance (CL)” value is 19.79 mL/min/kg. Also, the “Unbounded Intrinsic Clearance (CLuint)” value in data set [3] (corrected for fumic) was 29.84 µL/min/mg. In addition, the “Intrinsic Clearance (CLint)” value in data set [3] (from HLM kinetic data considering the Hill coefficient) is 22.68 µL/min/mg. The “Hepatic Clearance (CLH)” value in data set [3] (liver blood flow 20 mL/min/kg) was 1.89 mL/min/kg. Further, on CYP1A2 [4], the inhibition constant Ki (commonly the dissociation constant of the complex between target and ligand, obtained from inhibition or displacement) is 1500 nM. Besides, the mode of inhibition entry on CYP1A2 [4] (Lineweaver-Burk plot) was “competitive type”. Also, the “NADPH dependence of CYP oxidative inhibition” value on CYP1A2 [5] was “NADPH-dependent”.
